From PubChem BioAssay (NCI)
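In this assay, cells in 96-well plates receive the compound at five concentrations for 48 hours. Endpoints are linearly interpolated between the surrounding concentrations. GI50 marks 50% less growth. TGI denotes the concentration required for complete inhibition of growth.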

Tests used:
Assay in all cases: NCI tumour cell line growth inhibition, 48 h
786-0 renal = system: 786-0 renal
A498 renal = system: A498 renal
A549 NSCLC = system: A549 NSCLC
ACHN renal = system: ACHN renal
BT-549 breast = system: BT-549 breast
CAKI-1 renal = system: CAKI-1 renal
COLO 205 colon = system: COLO 205 colon
DU-145 prostate = system: DU-145 prostate
EKVX NSCLC = system: EKVX NSCLC
HCT-116 colon = system: HCT-116 colon
HCT-15 colon = system: HCT-15 colon
HL-60(TB) leukemia = system: HL-60(TB) leukemia
HS 578T breast = system: HS 578T breast
HT29 colon = system: HT29 colon
IGROV1 ovarian = system: IGROV1 ovarian
K-562 leukemia = system: K-562 leukemia
KM12 colon = system: KM12 colon
LOX IMVI melanoma = system: LOX IMVI melanoma
M14 melanoma = system: M14 melanoma
MCF7 breast = system: MCF7 breast
MDA-MB-231 breast = system: MDA-MB-231 breast
MDA-MB-435 = system: MDA-MB-435
MOLT-4 leukemia = system: MOLT-4 leukemia
NCI-H226 lung = system: NCI-H226 lung
NCI-H23 lung = system: NCI-H23 lung
NCI-H460 lung = system: NCI-H460 lung
NCI-H522 lung = system: NCI-H522 lung
NCI/ADR-RES ovarian = system: NCI/ADR-RES ovarian
OVCAR-3 ovarian = system: OVCAR-3 ovarian
OVCAR-4 ovarian = system: OVCAR-4 ovarian
OVCAR-5 ovarian = system: OVCAR-5 ovarian
OVCAR-8 ovarian = system: OVCAR-8 ovarian
PC-3 prostate = system: PC-3 prostate
RPMI-8226 leukemia = system: RPMI-8226 leukemia
RXF 393 renal = system: RXF 393 renal
SF-268 CNS = system: SF-268 CNS
SF-295 CNS = system: SF-295 CNS
SF-539 CNS = system: SF-539 CNS
SK-MEL-2 melanoma = system: SK-MEL-2 melanoma
SK-MEL-28 melanoma = system: SK-MEL-28 melanoma
SK-MEL-5 melanoma = system: SK-MEL-5 melanoma
SN12C renal = system: SN12C renal
SNB-19 CNS = system: SNB-19 CNS
SNB-75 CNS = system: SNB-75 CNS
SR leukemia = system: SR leukemia
SW-620 colon = system: SW-620 colon
TK-10 renal = system: TK-10 renal
U251 CNS = system: U251 CNS
UACC-257 melanoma = system: UACC-257 melanoma
UACC-62 melanoma = system: UACC-62 melanoma
UO-31 renal = system: UO-31 renal

OCC#Cc1ccccc1C#Cc1ccc(C#Cc2ccccc2)cc1
GI50 (786-0 renal): 23.5 µM
TGI (786-0 renal): 55.9 µM
GI50 (A498 renal): 15.6 µM
TGI (A498 renal): 30.8 µM
GI50 (A549 NSCLC): 15.3 µM
TGI (A549 NSCLC): 33.3 µM
GI50 (ACHN renal): 18.9 µM
TGI (ACHN renal): 37 µM
GI50 (BT-549 breast): 35.6 µM
TGI (BT-549 breast): > 100 µM
GI50 (CAKI-1 renal): 44.5 µM
TGI (CAKI-1 renal): > 100 µM
GI50 (COLO 205 colon): 24.9 µM
TGI (COLO 205 colon): 70.7 µM
GI50 (DU-145 prostate): 16.7 µM
TGI (DU-145 prostate): 34.4 µM
GI50 (EKVX NSCLC): 25.2 µM
TGI (EKVX NSCLC): 77.9 µM
GI50 (HCT-116 colon): 16.6 µM
TGI (HCT-116 colon): 32.3 µM
GI50 (HCT-15 colon): 18.1 µM
TGI (HCT-15 colon): 38.5 µM
GI50 (HL-60(TB) leukemia): 0.489 µM
TGI (HL-60(TB) leukemia): > 100 µM
GI50 (HS 578T breast): 31 µM
TGI (HS 578T breast): > 100 µM
GI50 (HT29 colon): 12.7 µM
TGI (HT29 colon): 33.5 µM
GI50 (IGROV1 ovarian): 28.4 µM
TGI (IGROV1 ovarian): > 100 µM
GI50 (K-562 leukemia): 3.92 µM
TGI (K-562 leukemia): 26.3 µM
GI50 (KM12 colon): 17.3 µM
TGI (KM12 colon): 34.3 µM
GI50 (LOX IMVI melanoma): 24.6 µM
TGI (LOX IMVI melanoma): > 100 µM
GI50 (M14 melanoma): 17.5 µM
TGI (M14 melanoma): 43.9 µM
GI50 (MCF7 breast): 15.9 µM
TGI (MCF7 breast): 38.3 µM
GI50 (MDA-MB-231 breast): 20 µM
TGI (MDA-MB-231 breast): 37.5 µM
GI50 (MDA-MB-435): 21 µM
TGI (MDA-MB-435): 49.5 µM
GI50 (MOLT-4 leukemia): 2.65 µM
TGI (MOLT-4 leukemia): 43.5 µM
GI50 (NCI-H226 lung): 18.4 µM
TGI (NCI-H226 lung): 43 µM
GI50 (NCI-H23 lung): 18.2 µM
TGI (NCI-H23 lung): 37 µM
GI50 (NCI-H460 lung): 20.5 µM
TGI (NCI-H460 lung): 79.8 µM
GI50 (NCI-H522 lung): 55.2 µM
TGI (NCI-H522 lung): > 100 µM
GI50 (NCI/ADR-RES ovarian): 17.6 µM
TGI (NCI/ADR-RES ovarian): 59.1 µM
GI50 (OVCAR-3 ovarian): 27.3 µM
TGI (OVCAR-3 ovarian): 48.7 µM
GI50 (OVCAR-4 ovarian): 20.4 µM
TGI (OVCAR-4 ovarian): > 100 µM
GI50 (OVCAR-5 ovarian): 17.7 µM
TGI (OVCAR-5 ovarian): 34.9 µM
GI50 (OVCAR-8 ovarian): 23.1 µM
TGI (OVCAR-8 ovarian): 57 µM
GI50 (PC-3 prostate): 15.1 µM
TGI (PC-3 prostate): 34.2 µM
GI50 (RPMI-8226 leukemia): 6.05 µM
TGI (RPMI-8226 leukemia): 22.2 µM
GI50 (RXF 393 renal): 26.2 µM
TGI (RXF 393 renal): 54.3 µM
GI50 (SF-268 CNS): 23.7 µM
TGI (SF-268 CNS): > 100 µM
GI50 (SF-295 CNS): 37.7 µM
TGI (SF-295 CNS): > 100 µM
GI50 (SF-539 CNS): 21.4 µM
TGI (SF-539 CNS): 45.6 µM
GI50 (SK-MEL-2 melanoma): 51.4 µM
TGI (SK-MEL-2 melanoma): > 100 µM
GI50 (SK-MEL-28 melanoma): 38.3 µM
TGI (SK-MEL-28 melanoma): > 100 µM
GI50 (SK-MEL-5 melanoma): 11.8 µM
TGI (SK-MEL-5 melanoma): 25.8 µM
GI50 (SN12C renal): 19 µM
TGI (SN12C renal): 35.6 µM
GI50 (SNB-19 CNS): 35.9 µM
TGI (SNB-19 CNS): > 100 µM
GI50 (SNB-75 CNS): 32.4 µM
TGI (SNB-75 CNS): > 100 µM
GI50 (SR leukemia): 11.5 µM
TGI (SR leukemia): 44.8 µM
GI50 (SW-620 colon): 17.2 µM
TGI (SW-620 colon): 44.4 µM
GI50 (TK-10 renal): 13 µM
TGI (TK-10 renal): 32.9 µM
GI50 (U251 CNS): 19.9 µM
TGI (U251 CNS): 38.6 µM
GI50 (UACC-257 melanoma): 27.6 µM
TGI (UACC-257 melanoma): 69.8 µM
GI50 (UACC-62 melanoma): 19.9 µM
TGI (UACC-62 melanoma): 36.1 µM
GI50 (UO-31 renal): 28.6 µM
TGI (UO-31 renal): > 100 µM
